Columns and labels:
[1] = target: HPPD SEQ ID NO:15 (Avena sativa, UniProt A0ACD5V6K6, DEL109-109/Q298A); assay: biochemical; format: binding
Procedure: (§1) On rates (governed by an association rate constant, kon) for the formation of the enzyme: inhibitor complexes, EI and off rates (governed by a dissociation rate constant, koff) were determined by methods known in the art and essentially as described in Hawkes et al. (2001) Proc. Bright. Crop. Prot. Conf. Weeds, 2:563-568 and in PCT Patent App. Pub. No. WO 02/46387).
(§2) For example, on rates were measured by, at zero time, adding ˜60 pmoles HPPD to 50 mM BisTrisPropane buffer at pH7.0 and at 25° C. containing 25 mM Na ascorbate, 4 μg/ml bovine catalase (Sigma, St. Louis, Mo.) and an excess (˜300 pmoles) of ^14C inhibitor in a total assay volume of 425 μl and, at various time points (0-180 s), quenching the radiolabel binding reaction by addition and rapid mixing of 100 μl ‘cold’ 1 mM structure A. Protein samples quenched at different times were then exchanged into 50 mM BisTrisPropane buffer at pH 7.0 containing 0.1M KCl by rapid chromatography down a NAP5 G25 Sephadex column (GE Healthcare Ltd, Buckinghamshire UK) and the amount of ^14C bound to protein fractions quantified in Optiphase scintillant using a Tri-Carb 2900TR scintillation counter (Perkin Elmer, Wellesley, Mass.). The data were fit according to the scheme below in order to derive the value of the apparent second order rate constant, k2, governing the association rate of enzyme and radiolabelled inhibitor. A range of enzyme and inhibitor concentrations were used. […] Further example methods are described in PCT Patent App. Pub. No. WO 02/46387.
(§3) Off rates (k1 in the scheme below) were derived from exchange rate studies where either the test inhibitor, I, or its exchange partner, J were radiolabelled and the data fit according to the scheme below. As noted in Hawkes et al. (2001) Proc. Bright. Crop. Prot. Conf.
(§4) After 30 minutes the exchange reaction was initiated with addition of 100 μl 1 mM ‘cold’ structure A with thorough mixing, and, immediately, 150 μl were withdrawn and loaded onto a NAP5 column, the protein exchanged into 50 mM BisTrisPropane buffer at pH 7.0 containing 0.1M KCl by rapid (<2 min) chromatography down a NAP5 G25 Sephadex column (GE Healthcare Ltd, Buckinghamshire UK) and the amount of ^14C bound to protein measured by Optiphase scintillant using a Tri-Carb 2900TR scintillation counter (Perkin Elmer, Wellesley, Mass.). Further aliquots were removed and measured in the same way at various times over minutes or hours as required in order to determine the exchange kinetics.
(§5) After 30 minutes the reaction vessel was transferred to ice. After a further 10 minutes at ice temperature the exchange reaction was initiated by addition of 100 μl 1 mM Structure A, with thorough mixing, and 150 μl was withdrawn and loaded onto a NAP5 column in a cold room at ˜5-8° C. in order to quantify the amount of radiolabel remaining bound to the protein at various time from the start of exchange at ice temperature.
(§6) Off rates (k1) of HPPD inhibitors that are not available radiolabelled or that present other measurement problems (for example high levels of background non-specific protein-binding which can be measured as radiolabel binding that persists in the presence of high concentrations of ‘cold’ inhibitor) may be measured indirectly. […] Exemplary methods are also described in PCT Patent App. Pub. No. WO 02/46387.

[2] = target: HPPD SEQ ID NO:19 (Avena sativa, UniProt A0ACD5V6K6, DEL109-109/I285A); assay: biochemical; format: binding
Procedure: as §1, §2, §3, §4, §5, §6

[3] = target: HPPD SEQ ID NO:26 (Avena sativa, UniProt A0ACD5V6K6, DEL109-109/L256M/L359M); assay: biochemical; format: binding; settings: read-out: koff (k1)
Procedure: as §1
For example, on rates were measured by, at zero time, adding ˜60 pmoles HPPD to 50 mM BisTrisPropane buffer at pH7.0 and at 25° C. containing 25 mM Na ascorbate, 4 μg/ml bovine catalase (Sigma, St. Louis, Mo.) and an excess (˜300 pmoles) of ^14C inhibitor in a total assay volume of 425 μl and, at various time points (0-180 s), quenching the radiolabel binding reaction by addition and rapid mixing of 100 μl ‘cold’ 1 mM structure A. Protein samples quenched at different times were then exchanged into 50 mM BisTrisPropane buffer at pH 7.0 containing 0.1M KCl by rapid chromatography down a NAP5 G25 Sephadex column (GE Healthcare Ltd, Buckinghamshire UK) and the amount of ^14C bound to protein fractions quantified in Optiphase scintillant using a Tri-Carb 2900TR scintillation counter (Perkin Elmer, Wellesley, Mass.). The data were fit according to the scheme below in order to derive the value of the apparent second order rate constant, k2, governing the association rate of enzyme and radiolabelled inhibitor. […]

[4] = tested on: G408A mutant of HPPD SEQ ID NO:14; assay: time course of inhibition of enzyme activity; format: biochemical, Avena sativa; settings: inhibitor at 0.15 or 0.6 μM
[5] = tested on: soybean event 1 (vector 15764) expressing SEQ ID NO:14; assay: herbicide spray test on soybean events; format: in vivo; settings: C 400 g/ha; event 1/SEQ#14; V2 growth stage; 14 DAT; average of n=7
From the text: (§7) Each data point represents the average damage score from n=7 replicates.
(§8) These events were used to compare the performance of five 17147 events. Four of these, SF, S8, S7 and S3 had not been preselected for tolerance level (other than to confirm resistance, non-chimerical nature and the presence of the gene) while the remaining event, T0, had been preselected as the most resistant out of five 17147 events in a preliminary field test.
(§9) Plants were in 4×4×4 inch plastic pots and grown under a 15/9 hour light regime (daylight supplemented by artificial light in greenhouses) at a minimum night-time temperature of 18° C. and maximum daytime temperature of 27° C. Soil was regular VBRC mix (1:1 mixture of Vero field soil and Fafard Mix II) where Vero field soil is 98% sand and 2% clay. […] Spray volume was 150 L/ha and the damage scores reflect assessments at 14 DAT.

[6] = tested on: soybean event 2 (vector 15764) expressing SEQ ID NO:14; assay: herbicide spray test on soybean events; format: in vivo; settings: C 400 g/ha; event 2/SEQ#14; V2 growth stage; 14 DAT; average of n=7
From the text: as §7, §8, §9

[7] = tested on: soybean event S3 (vector 17147) expressing SEQ ID NO:24; assay: herbicide spray test on soybean events; format: in vivo; settings: C 400 g/ha; event S3/SEQ#24; V2 growth stage; 14 DAT; average of n=7
From the text: as §7, §8, §9

[8] = tested on: soybean event S7 (vector 17147) expressing SEQ ID NO:24; assay: herbicide spray test on soybean events; format: in vivo; settings: C 400 g/ha; event S7/SEQ#24; V2 growth stage; 14 DAT; average of n=7
From the text: as §7, §8, §9

[9] = tested on: soybean event S8 (vector 17147) expressing SEQ ID NO:24; assay: herbicide spray test on soybean events; format: in vivo; settings: C 400 g/ha; event S8/SEQ#24; V2 growth stage; 14 DAT; average of n=7
From the text: as §7, §8, §9

[10] = tested on: soybean event SF (vector 17147) expressing SEQ ID NO:24; assay: herbicide spray test on soybean events; format: in vivo; settings: C 400 g/ha; event SF/SEQ#24; V2 growth stage; 14 DAT; average of n=7
From the text: as §7, §8, §9

[11] = tested on: soybean event T0 (vector 17147) expressing SEQ ID NO:24; assay: herbicide spray test on soybean events; format: in vivo; settings: C 400 g/ha; event T0/SEQ#24; V2 growth stage; 14 DAT; average of n=7
From the text: as §7, §8, §9

[12] = tested on: Jack w/t; assay: herbicide spray test on soybean; format: in vivo; settings: C 400 g/ha, V2 growth stage, 14 DAT, average of n=7
Procedure: as §7, §9

Sequence of HPPD SEQ ID NO:15 (A0ACD5V6K6 entry or part of it DEL109-109/Q298A): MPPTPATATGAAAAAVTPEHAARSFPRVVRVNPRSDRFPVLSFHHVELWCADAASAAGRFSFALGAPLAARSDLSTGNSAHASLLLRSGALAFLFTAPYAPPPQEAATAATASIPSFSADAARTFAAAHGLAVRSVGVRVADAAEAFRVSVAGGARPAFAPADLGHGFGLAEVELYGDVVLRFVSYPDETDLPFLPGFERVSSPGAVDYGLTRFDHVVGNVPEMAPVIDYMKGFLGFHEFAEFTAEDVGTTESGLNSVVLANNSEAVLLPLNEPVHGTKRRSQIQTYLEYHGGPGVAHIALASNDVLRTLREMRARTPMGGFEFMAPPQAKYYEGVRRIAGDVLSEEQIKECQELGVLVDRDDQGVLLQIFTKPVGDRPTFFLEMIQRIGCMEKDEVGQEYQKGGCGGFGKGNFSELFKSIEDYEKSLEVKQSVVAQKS
Sequence of HPPD SEQ ID NO:19 (A0ACD5V6K6 entry or part of it DEL109-109/I285A): as the sequence (A0ACD5V6K6 entry or part of it DEL109-109/Q298A) above, with I284A, A297Q counted along it
Sequence of HPPD SEQ ID NO:26 (A0ACD5V6K6 entry or part of it DEL109-109/L256M/L359M): as the sequence (A0ACD5V6K6 entry or part of it DEL109-109/Q298A) above, with L255M, A297Q, L358M counted along it

COCCOCc1nc(C(F)(F)F)ccc1C(=O)C1C(=O)C2CCC(C2)C1=O (stereo not shown) [Structure C]
Kd [1]: 17.7 nM
koff ([1]; read-out: koff (k1)): 0.000113 s⁻¹
kon ([1]; read-out: kon (k2)): 7500 M⁻¹ s⁻¹
Kd [2]: 8.9 nM
koff ([2]; read-out: koff (k1)): 6.6e-05 s⁻¹
kon ([2]; read-out: kon (k2)): 7500 M⁻¹ s⁻¹
koff [3]: 9e-05 s⁻¹
extent of inhibition compared with the control enzyme [4]: to a lesser extent
% dam. [5]: 42.1%
% dam. [6]: 52.9%
% dam. [7]: 62.1%
% dam. [8]: 45%
% dam. [9]: 68.6%
% dam. [10]: 98.6%
% dam. [11]: 45%
% dam. [12]: 82.1%

Reference: US9175305B2, “Mutant hydroxyphenylpyruvate dioxygenase polypeptides and methods of use” (Syngenta Participations AG, priority 2009, dated 2015)
